The experiment has as its target C-C chemokine receptor type 5 (Homo sapiens, UniProt P51681). In words: Antagonist activity at Homo sapiens (human) CCR5 receptor.

A word on the IC50: it is the concentration that inhibits the measured activity by half. Read a low IC50 as higher potency.

Chain of C-C chemokine receptor type 5 (P51681 whole entry): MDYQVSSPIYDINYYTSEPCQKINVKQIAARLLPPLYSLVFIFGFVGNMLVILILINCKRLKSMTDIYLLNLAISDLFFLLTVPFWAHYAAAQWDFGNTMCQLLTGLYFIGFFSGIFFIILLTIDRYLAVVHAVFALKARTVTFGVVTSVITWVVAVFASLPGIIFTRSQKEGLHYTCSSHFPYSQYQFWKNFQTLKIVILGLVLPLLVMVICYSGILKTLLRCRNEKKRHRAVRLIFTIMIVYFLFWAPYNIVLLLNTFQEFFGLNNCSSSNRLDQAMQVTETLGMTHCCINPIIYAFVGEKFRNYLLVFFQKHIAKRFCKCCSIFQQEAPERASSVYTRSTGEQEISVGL

Molecule `Brc1ccc(COc2ccc(Br)cc2N2CCOCC2)cc1` had an IC50 of 1000 nM. As to `CC1CCN(CC2(O)CCN(Cc3cc(Br)ccc3OCc3ccc(Cl)cc3)CC2)CC1`, the IC50 is 210 nM. As for `N=C(N)N/N=C/c1cc(Br)ccc1OCc1cccc(Cl)c1`, the IC50 is 839 nM. Take `Cc1ccc(NC(=O)NCC2(O)CCC(Cc3cc(Br)ccc3OCc3ccc(Cl)cc3)CC2)cc1` (stereo not drawn): half-maximal inhibition (IC50) was put at 1500 nM. Consider `O=C(NCC1(O)CCC(Cc2cc(Br)ccc2OCc2ccc(Cl)cc2)CC1)Nc1c(Cl)cc(Cl)cc1Cl` (stereo not drawn), for which inhibition was half-maximal at 450 nM (IC50). Then `C/C(=N\NC(=N)N)c1cc(Br)ccc1OCc1ccc(C#N)cc1`, with 92.9 nM. As for `CC/C(=N\NC(=N)N)c1cc(Br)ccc1OCc1ccc(Cl)cc1`, the figure is 400 nM; as for `CN(C)c1cc(Br)ccc1OCc1ccc(Cl)cc1`, 600 nM; as for `O=C(NCC1(O)CCC(Cc2cc(Br)ccc2OCc2ccc(Cl)cc2)CC1)Nc1c(F)cccc1F` (stereo not drawn), 320 nM. As for `O=C(NCC1(O)CCC(Cc2cc(Br)ccc2OCc2ccc(Cl)cc2)CC1)Nc1c(Cl)cccc1Cl` (stereo not drawn), half-maximal inhibition (IC50) required 57 nM.

As to `Cc1cc(Br)cc(C)c1NC(=O)NCC1(O)CCC(Cc2cc(Br)ccc2OCc2ccc(Cl)cc2)CC1` (stereo not drawn), the midpoint of inhibition, the IC50, lay at 170 nM. Regarding `Cc1cc(C)c(NC(=O)NCC2(O)CCC(Cc3cc(Br)ccc3OCc3ccc(Cl)cc3)CC2)c(C)c1` (stereo not drawn), the IC50 was 100 nM. In the case of `Cc1cccc(C)c1NC(=O)NCC1(O)CCC(Cc2cc(Br)ccc2OCc2ccc(Cl)cc2)CC1` (stereo not drawn), half-maximal inhibition (IC50) required 47 nM. In the case of `CCc1cccc(CC)c1NC(=O)NCC1(O)CCC(Cc2cc(Br)ccc2OCc2ccc(Cl)cc2)CC1` (stereo not drawn), 11 nM corresponded to half-maximal inhibition (IC50). Molecule `CC(C)c1cccc(C(C)C)c1NC(=O)NCC1(O)CCC(Cc2cc(Br)ccc2OCc2ccc(Cl)cc2)CC1` (stereo not drawn) showed an IC50 of 35 nM. Turning to `N=C(N)N/N=C/c1cc(Br)ccc1OCc1ccc(F)c(F)c1`, it took 3700 nM to reach half-maximal inhibition (IC50). On to `CCN(CC)c1cc(Br)ccc1OCc1ccc(Cl)cc1`, for which the midpoint of inhibition, the IC50, lay at 1400 nM. In turn, `N=C(N)N/N=C/c1cc(Br)ccc1OCc1ccc(Cl)cc1` gave an IC50 of 600 nM.

Values taken from ChEMBL document CHEMBL3046174, “Docking and CoMFA study on novel human CCR5 receptor antagonists” (Med Chem Res, 2013).
